{
  "source": "patent US20190284536A1",
  "about": "“EPITHELIAL TUMOR CELL CULTURES” (Beijing Percans Oncology Co., Ltd., priority 2016, published 2019)",
  "system": "human epithelial tumor cells",
  "details": "DMEM/F12 based culture medium supplemented with BSA vs without; FIG. 10",
  "description": "DF12: DMEM/F12 based culture medium. DF12+BSA: DMEM/12 based culture medium supplemented with BSA. Cell proliferation was measured by EdU incorporation. Error bars represent standard deviation (SD).",
  "data": [
    {"substance": "bovine serum albumin [BSA]", "values": [
      {"measurement": "growth of human epithelial tumor cells (cell proliferation by EdU incorporation)", "result": "supports the growth"}
    ]}
  ]
}
